Reference: patent US20170290774A1, “NEUROKININ-1 RECEPTOR ANTAGONIST COMPOSITION FOR TREATMENT OF DISEASES AND CONDITIONS OF THE RESPIRATORY TRACT” (PLUS VITECH, S.L., priority 2014, published 2017)

System: MMP-9
Assay: Immunohistochemistry of MMP-9 in respiratory tract tissue of sodium hypochlorite aerosol-treated rabbits
Assay type: in vivo, New Zealand albino rabbits
Source text: It is known that the factors TGF-α, TGF-β 1, TGF-β 2, TGF-β 3, SPARC, MMP-3; MMP-7, MMP-9, MMP-11, MMP-13 and MMP-14, TGF-β, NF-kB, EGF, MMP-9, VEGF and TNF-α which are produced by lung cells (pneumocytes, fibroblasts and vascular endothelial cells) and inflammatory cells (macrophages, lymphocytes and polymorphonuclear leukocytes) are involved in the pathophysiology and development of said respiratory tract diseases. […] Herein, 27 New Zealand albino rabbits (New Zealand White Rabbit) with an initial average weight about 3 kg were used in this example. All subjects were administered an aerosol of a solution consisting of a mixture of water and sodium hypochlorite (35 g sodium hypochlorite per liter of water) at a rate of 5 mL of said solution by inhalation three times a day for 7 days (days 1 to 7 of experimentation). Subsequently, from days 3 to 7, a group of 3 rabbits (Group 1) was administered an oral dose of 10 mg/kg body weight per day, another group of 3 rabbits (Group 2) was administered an oral dose of 40 mg/kg body weight per day, a third group (Group 3) was administered an oral dose of 80 mg/kg body weight per day and a fourth group (Group 4) was administered an oral dose of 100 mg/kg body weight per day. […] This mixture was administered as an aerosol by inhalation, also from days 3 to 7, to a group of 3 rabbits (group 5) at a dose of 0.05 mg/kg body weight per day, to another group of three rabbits (Group 6) at a dose of 0.1 mg/kg body weight per day, to another group of three rabbits (Group 7) at a dose of 0.2 mg/kg body weight per day and to another group of three rabbits (Group 8) at a dose of 0.4 mg/kg body weight per day. A placebo consisting only of olive oil was administered from days 3 to 7 to a control group of 3 rabbits (placebo group). In parallel, 3 rabbits were kept under identical conditions but were not administered any treatment nor the aforementioned sodium hypochlorite solution (control group). […] On day 7 of the experiment all animals were euthanized and necropsied. […] Samples were taken at the peripheral level of the lung parenchyma, just below the pleural surface. Tissue samples were also taken from the nasal cavity, pharynx, larynx and bronchi. Immunohistochemistry studies were performed for all samples to evaluate the levels of the markers TGF-α, TGF-β 1, TGF-β 2, TGF-β 3 SPARC, MMP-3; MMP-7, MMP-9, MMP-11, MMP-14, TGF-β, TNF-α and VEGF. In said immunohistochemistry studies, a sample of each sample was dehydrated by treatment with increasing concentrations of ethanol and finally xylene. Subsequently said dried samples were embedded in paraffin, thus creating a block. Said paraffin blocks were cut on a microtome to a thickness of 5 μm, and the resulting sections (slices) were placed on slides suitable for conducting immunohistochemistry techniques. Subsequently, the sections were deparaffinised by immersion in xylene and then rehydrated through immersion in a series of solutions containing decreasing concentrations of ethanol and, finally, water. […] The samples were then allowed to cool to room temperature over 10 minutes. Endogenous peroxidase activity was blocked by treatment with 3% hydrogen peroxide over 30 min at room temperature. […] In order to verify the expression of NK1 receptors, the cell samples were incubated in the presence of anti-NK1 antibodies ([…], Sigma-Aldrich) diluted 1:1000 at 4° C. overnight. After this time they were washed in 0.05M Tris buffer at room temperature. Subsequently, Envision System-HRP (Dako) reagents were added for 30 min at room temperature. Once this time had expired, the samples were again washed with 0.05 M Tris buffer, and immunoreactivity was visualized by light microscopy with a chromogenic solution with 3,3'-diaminobenzidine (DAB+; Dako, USA). In order to differentiate the cell nuclei, these were lightly stained with haematoxylin. Samples that were not incubated with the primary antibody, but wherein this was replaced by a non-immune serum were used as negative controls. […]

**Q.** `C[C@@H](OC1OCCN(Cc2nc(=O)[nH][nH]2)C1c1ccc(F)cc1)c1cc(C(F)(F)F)cc(C(F)(F)F)c1` (stereo in doubt) [Aprepitant, 5-([(2R,3S)-2-((R)-1-[3,5-bis(trifluoromethyl)phenyl]ethoxy)-3-(4-fluorophenyl)morpholino]methyl)-1H-1,2,4-triazol-3(2H)-one] was tested. Which “Percent increase in MMP-9 with respect to the control group” value (bronchial tissue, Group 1, oral 10 mg/kg per day) did it give?
**A.** 749.34%

**Q.** What about the “Percent increase in MMP-9 with respect to the control group” value (bronchial tissue, Group 2, oral 40 mg/kg per day) of the same compound?
**A.** 672.94%

**Q.** What about the “Percent increase in MMP-9 with respect to the control group” value (bronchial tissue, Group 3, oral 80 mg/kg per day) of the same compound?
**A.** 495.87%

**Q.** And the “Percent increase in MMP-9 with respect to the control group” value (bronchial tissue, Group 4, oral 100 mg/kg per day)?
**A.** 305.34%

**Q.** And the “% Med G5/C: percent increase in marker MMP-9 with respect to the control group” value (bronchial tissue, Group 5)?
**A.** 673.45%

**Q.** And the “% Med G6/C: percent increase in marker MMP-9 with respect to the control group” value (bronchial tissue, Group 6)?
**A.** 452.61%

**Q.** And the “% Med G7/C: percent increase in marker MMP-9 with respect to the control group” value (bronchial tissue, Group 7)?
**A.** 325.54%

**Q.** What about the “% Med G8/C: percent increase in marker MMP-9 with respect to the control group” value (bronchial tissue, Group 8) of the same compound?
**A.** 153.34%

**Q.** What about the “Percent increase in MMP-9 with respect to the control group” value (laryngeal tissue, Group 1, oral 10 mg/kg per day) of the same compound?
**A.** 1,290.89%

**Q.** And the “Percent increase in MMP-9 with respect to the control group” value (laryngeal tissue, Group 2, oral 40 mg/kg per day)?
**A.** 983.98%

**Q.** What about the “Percent increase in MMP-9 with respect to the control group” value (laryngeal tissue, Group 3, oral 80 mg/kg per day) of the same compound?
**A.** 898.18%

**Q.** What about the “Percent increase in MMP-9 with respect to the control group” value (laryngeal tissue, Group 4, oral 100 mg/kg per day) of the same compound?
**A.** 788.78%

**Q.** What about the “Percent increase in MMP-9 with respect to the control group” value (laryngeal tissue, Group 5, inhalation 0.05 mg/kg per day) of the same compound?
**A.** 989.34%

**Q.** And the “Percent increase in MMP-9 with respect to the control group” value (laryngeal tissue, Group 6, inhalation 0.1 mg/kg per day)?
**A.** 567.37%

**Q.** What about the “Percent increase in MMP-9 with respect to the control group” value (laryngeal tissue, Group 7, inhalation 0.2 mg/kg per day) of the same compound?
**A.** 256.47%

**Q.** And the “Percent increase in MMP-9 with respect to the control group” value (laryngeal tissue, Group 8, inhalation 0.4 mg/kg per day)?
**A.** 123.23%

**Q.** And the “Percent increase in MMP-9 with respect to the control group” value (lung tissue, Group 1, oral 10 mg/kg per day)?
**A.** 566.19%

**Q.** What about the “Percent increase in MMP-9 with respect to the control group” value (lung tissue, Group 2, oral 40 mg/kg per day) of the same compound?
**A.** 384.44%

**Q.** What about the “Percent increase in MMP-9 with respect to the control group” value (lung tissue, Group 3, oral 80 mg/kg per day) of the same compound?
**A.** 338.57%

**Q.** And the “Percent increase in MMP-9 with respect to the control group” value (lung tissue, Group 4, oral 100 mg/kg per day)?
**A.** 326.02%

**Q.** What about the “Percent increase in MMP-9 with respect to the control group” value (lung tissue, Group 5, inhalation 0.05 mg/kg per day) of the same compound?
**A.** 570.94%

**Q.** What about the “Percent increase in MMP-9 with respect to the control group” value (lung tissue, Group 6, inhalation 0.1 mg/kg per day) of the same compound?
**A.** 267.29%

**Q.** What about the “Percent increase in MMP-9 with respect to the control group” value (lung tissue, Group 7, inhalation 0.2 mg/kg per day) of the same compound?
**A.** 183.98%

**Q.** What about the “Percent increase in MMP-9 with respect to the control group” value (lung tissue, Group 8, inhalation 0.4 mg/kg per day) of the same compound?
**A.** 156.83%

**Q.** What about the “Percent increase in MMP-9 with respect to the control group” value (nasal cavity tissue, Group 1, oral 10 mg/kg per day) of the same compound?
**A.** 1,355.64%

**Q.** What about the “Percent increase in MMP-9 with respect to the control group” value (nasal cavity tissue, Group 2, oral 40 mg/kg per day) of the same compound?
**A.** 768.75%

**Q.** What about the “Percent increase in MMP-9 with respect to the control group” value (nasal cavity tissue, Group 3, oral 80 mg/kg per day) of the same compound?
**A.** 511.58%

**Q.** And the “Percent increase in MMP-9 with respect to the control group” value (nasal cavity tissue, Group 4, oral 100 mg/kg per day)?
**A.** 328.92%

**Q.** And the “Percent increase in MMP-9 with respect to the control group” value (nasal cavity tissue, Group 5, inhalation 0.05 mg/kg per day)?
**A.** 1,289.77%

**Q.** What about the “Percent increase in MMP-9 with respect to the control group” value (nasal cavity tissue, Group 6, inhalation 0.1 mg/kg per day) of the same compound?
**A.** 588.48%

**Q.** What about the “Percent increase in MMP-9 with respect to the control group” value (nasal cavity tissue, Group 7, inhalation 0.2 mg/kg per day) of the same compound?
**A.** 291.36%

**Q.** What about the “Percent increase in MMP-9 with respect to the control group” value (nasal cavity tissue, Group 8, inhalation 0.4 mg/kg per day) of the same compound?
**A.** 143.08%

**Q.** What about the “Percent increase in MMP-9 with respect to the control group” value (pharyngeal tissue, Group 1, oral 10 mg/kg per day) of the same compound?
**A.** 1,102.28%

**Q.** And the “Percent increase in MMP-9 with respect to the control group” value (pharyngeal tissue, Group 2, oral 40 mg/kg per day)?
**A.** 945.34%

**Q.** What about the “Percent increase in MMP-9 with respect to the control group” value (pharyngeal tissue, Group 3, oral 80 mg/kg per day) of the same compound?
**A.** 789.45%

**Q.** What about the “Percent increase in MMP-9 with respect to the control group” value (pharyngeal tissue, Group 4, oral 100 mg/kg per day) of the same compound?
**A.** 561.21%

**Q.** What about the “Percent increase in MMP-9 with respect to the control group” value (pharyngeal tissue, Group 5, inhalation 0.05 mg/kg per day) of the same compound?
**A.** 998.67%

**Q.** What about the “Percent increase in MMP-9 with respect to the control group” value (pharyngeal tissue, Group 6, inhalation 0.1 mg/kg per day) of the same compound?
**A.** 505.32%

**Q.** What about the “Percent increase in MMP-9 with respect to the control group” value (pharyngeal tissue, Group 7, inhalation 0.2 mg/kg per day) of the same compound?
**A.** 212.24%

**Q.** What about the “Percent increase in MMP-9 with respect to the control group” value (pharyngeal tissue, Group 8, inhalation 0.4 mg/kg per day) of the same compound?
**A.** 121.23%
